Experimental data from patent US8183005B1, “Pharmaceutical agents for treating HCV infections” (priority 2004, dated 2012).
Where two headings read alike, the source gives them in different places.

Legend:
[1] = in vitro; format: cell-based; conditions: human
Experimental: Firefly luciferase HCV replicon cells (Huh-3-1) suspended in Dulbecco's MEM (Gibco Cat. No. 10569) containing 5% fetal bovine serum (Hyclone Cat. No. SH30071.03) were plated onto a 96-well plate at 5000 cells/well, and cultured overnight under 5% CO2 at 37° C. Approximately 20 hours later, fumonisin B1 was added to a final concentration of 1.37 μM to 1000 μM by carrying out a sequential three-fold dilution, and the cells were then cultured for three more days. The assay was carried out by preparing two types of assay plates: one an opaque white plate and the other a transparent plate. After culturing, the white plate was subjected to the Steady-Glo Luciferase Assay System (Promega Cat. No. E2520). More specifically, 100 μL of reagent was added to each well, mixed three to four times using a pipette, and then stood for five minutes before luminescence was measured using 1450 MicroBeta TRILUX (WALLAC). IC50 (50% inhibitory concentration) of a pharmaceutical agent was calculated by subtracting the value obtained without adding the cells as the background value from all of the values, and then defining the level of inhibition without addition of the pharmaceutical agent as 0%. A Cell Counting Kit-8 (DOJINDO Laboratories, Cat. No. 341-07761) was used for the cytotoxicity assays. 10 μL of reagent was added to each well, mixed three to four times using a pipette, and then stood for approximately 30 minutes; measurements were performed when OD450 nm reached approximately 1.0. IC50 (50% inhibitory concentration) of a pharmaceutical agent was calculated by subtracting the value obtained without adding the cells as the background value from all of the values, and then defining the level of inhibition without addition of the pharmaceutical agent as 0%.
Based on the results of Example 5, the following method was used to measure the effect on cytotoxicity and HCV replicon activity under conditions in which Huh-3-1 cells show reduced LCB1 expression. More specifically, cells were plated onto a 96-well plate at 3500 cells per well, and cultured overnight under 5% CO2 at 37° C. 1.75 μL of 2 μM siRNA was added to 23.3 μL of ECR buffer (buffer included in the RNAiFect Kit), this was stirred vigorously, and then 0.31 μL of RNAiFect transfection reagent was added. This was stirred gently at room temperature and then allowed to stand for ten minutes. siRNA was added to a final concentration of 35 nM, and this was cultured for four days. The effect on cytotoxicity was determined by adding 10 μL of Cell Counting Kit-8 (DOJINDO Laboratories Cat. No. 341-07761) to the medium, mixing three to four times using a pipette, and then allowing this to stand for one hour at 37° C. Absorbance was then measured at 450 nm using a microplate reader Emax (Molecular Devices). After incubation, the medium was exchanged for fresh medium, and the plate was subjected to the Steady-Glo Luciferase Assay System (Promega Cat. No. E2520). 100 μL of reagent was added to each well, mixed three to four times using a pipette, and then allowed to stand for five minutes. Luminescence was then measured using 1450 MicroBeta TRILUX (WALLAC) to determine the HCV replicon activity. IC50 (50% inhibitory concentration) of a pharmaceutical agent was calculated by subtracting the value obtained without adding the cells as the background value from all of the values, and then defining the level of inhibition without addition of the pharmaceutical agent as 0%.
A Cell Counting Kit-8 (DOJINDO Laboratories, Cat. No. 341-07761) was used for the cytotoxicity assays. More specifically, 10 μL of Cell Counting Kit-8 was added to the transparent plate, and this was warmed at 37° C. for 30 to 60 minutes. Using a 96-well plate reader, absorbance was measured at a wavelength of 450 nm with a reference wavelength of 630 nm. […]

[2] = test system: HCV-NS3 protein; assay: Immunostaining of HCV-NS3 protein in HCV replicon cells; format: cell-based; conditions: 100 nM, 96 hours
Experimental: HCV replicon cells were treated with 100 nM of the compound represented by formula (II) for 96 hours, and then the cells were fixed in 3.7% formaldehyde. Blocking with 3% BSA was followed by incubation with an NS3 antibody (provided by F. Hoffman-La Roche), and then the washed cells were incubated with a Texas-Red-labeled rabbit IgG (Molecular probe), and analyzed using a fluorescence microscope (FIG. 10).

[3] = test system: NS3, NS5A, and NS5B; assay: Western blotting of NS3, NS5A and NS5B in replicon cells; format: cell-based, HCV; conditions: 100 nM, 48 hours and 96 hours
Experimental: Replicon cells were treated with 100 nM of the compound represented by formula (II) for the lengths of time indicated in FIG. 11 (48 hours and 96 hours). Western blot analysis was performed using a method similar to that of Example 5.

[4] = test system: de novo syntheses of ceramide and sphingomyelin; assay: De novo syntheses of ceramide and sphingomyelin, [14C]serine labeling; format: cell-based; conditions: HCV replicon cells, 48 hours treatment, [14C]serine three hours
Experimental: HCV replicon cells were treated for 48 hours with the compound represented by formula (II) at the concentrations indicated in FIG. 13. The cells were then labeled for three hours with [14C]serine. After extraction with chloroform/methanol (1:2, v/v), de novo synthesized ceramide (FIG. 13A) and sphingomyelin (FIG. 13B) were separated by thin layer chromatography.

[5] = test system: HCV replication; assay: Recovery from replication inhibition by C2-ceramide, Western blot; format: cell-based; conditions: C2-ceramide added at the same time, 96 hours
Experimental: To elucidate whether the inhibitory activity of the compound represented by formula (II) against the HCV replicon is dependent on the sphingolipid biosynthetic pathway, cell-permeable ceramide, C2-ceramide (Sigma, Cat. No. A7191), was added to HCV replicon cells at the same time as the compound represented by formula (II), and these were cultured for 96 hours. These cell extracts were used to perform Western blot analysis using a method similar to that of Example 5.

[6] = test system: raft proteins (NS5B, NS5A, caveolin-2); assay: Effect on raft proteins, sucrose density gradient fractionation, Western blot or ELISA; format: cell-based; conditions: 72 hours
Experimental: 1 mM of the compound represented by formula (II) was added to the HCV replicon cells, then 72 hours later the cell extract was treated for one hour with a solubilizer, 1% Nonidet P-40 (Nacalai tesque, Cat. No. 252-23). Fractions 1 to 9 were separated by the sucrose density gradient fractionation method, and Western blot analysis was performed using a method similar to that of Example 5. […] Caveolin-2 expression was confirmed using a caveolin-2 antibody (BD Transduction, Cat. No 610684).
1 μM of the compound represented by formula (II) was added to the HCV replicon cells, then 72 hours later the cell extract was treated for one hour with 1% NP-40. Raft proteins (solubilizer-resistant) and non-raft proteins were separated using the sucrose density gradient fractionation method, diluted with PBS, concentrated, and then quantified by ELISA analysis.

CCCCCCCC(=O)CCCCCC/C=C/[C@H](C(=O)N[C@@H](Cc1ccc(OCC=C(C)C)cc1)C(=O)O)[C@@](O)(CC(=O)O)C(=O)O [Compound (40)]
CC50 ([1]; HCV replicon cells, FIG. 9, read-out: cytotoxicity CC50): > 0.05 µM
CC50 ([1]; Huh-3-1 replicon cells, three days, Cell Counting Kit-8, read-out: Cytotoxicity CC50): > 5 µM
HCV-NS3 protein around the nucleus (immunostaining) [2]: disappeared
expression levels of NS3, NS5A and NS5B [3]: reduced
intracellular de novo synthesis of ceramide [4]: inhibited
intracellular de novo synthesis of sphingomyelin [4]: inhibited
inhibition of HCV replication in presence of C2-ceramide [5]: suppressed in a manner dependent on C2-ceramide concentration
dissociation of NS5B from the raft ([6]; 1 μM, 1% NP-40, ELISA): significant dissociation of NS5B from the raft
effect on NS5A and caveolin-2 ([6]; 1 mM, 1% Nonidet P-40, Western blot): could not be confirmed
